This passage reports K and IC50 results from ChEMBL document CHEMBL4325825, “Medicinal chemistry of acridine and its analogues” (Medchemcomm, 2018).

Each structure is given as a SMILES string. Where a SMILES comes first, the peptide text is derived from it. The star is where a group is joined. X1 = CCN(CC)CCCCC(C)Nc1c2ccccc2nc2c(C(=O)NCCCO/N=C/C(=O)*)cccc12

What is called IC50 is the point on the concentration scale where inhibition reaches its midpoint. A low value points to higher potency.

The subject of one assay is Calf thymus DNA. The assay is described as follows: Binding affinity to calf thymus DNA. As to conditions: Bos taurus. In kind it is nucleic-acid assay.
In a further assay the test system is DNA. Nature of the assay: Binding affinity to DNA (unknown origin). In kind it is nucleic-acid assay.
In assay [1] the target is T1, Acetylcholinesterase (Mus musculus, UniProt P21836).
T1 sequence (P21836 whole entry): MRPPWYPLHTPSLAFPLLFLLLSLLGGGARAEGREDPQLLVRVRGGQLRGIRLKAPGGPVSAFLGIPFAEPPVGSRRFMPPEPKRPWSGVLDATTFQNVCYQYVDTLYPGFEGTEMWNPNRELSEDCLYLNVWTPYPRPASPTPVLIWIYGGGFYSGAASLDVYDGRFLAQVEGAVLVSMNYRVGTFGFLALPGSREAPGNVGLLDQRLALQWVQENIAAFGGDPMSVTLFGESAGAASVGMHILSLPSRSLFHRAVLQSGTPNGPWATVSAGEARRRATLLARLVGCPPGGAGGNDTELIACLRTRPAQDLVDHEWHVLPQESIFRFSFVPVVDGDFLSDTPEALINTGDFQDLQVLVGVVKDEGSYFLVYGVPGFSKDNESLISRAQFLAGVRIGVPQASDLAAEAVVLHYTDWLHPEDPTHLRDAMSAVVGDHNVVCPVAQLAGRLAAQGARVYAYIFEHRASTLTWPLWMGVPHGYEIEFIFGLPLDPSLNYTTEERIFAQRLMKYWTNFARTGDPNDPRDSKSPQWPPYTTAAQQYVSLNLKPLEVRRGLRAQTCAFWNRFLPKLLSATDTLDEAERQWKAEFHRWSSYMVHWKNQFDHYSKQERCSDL
Nature of the assay: Inhibition of AChE in mouse brain. In kind it is tissue-based.

The next assay deals with Cholinesterase (Homo sapiens, UniProt P06276). The assay is described as follows: Inhibition of BuChE (unknown origin).
Sequence of Cholinesterase (P06276 whole entry): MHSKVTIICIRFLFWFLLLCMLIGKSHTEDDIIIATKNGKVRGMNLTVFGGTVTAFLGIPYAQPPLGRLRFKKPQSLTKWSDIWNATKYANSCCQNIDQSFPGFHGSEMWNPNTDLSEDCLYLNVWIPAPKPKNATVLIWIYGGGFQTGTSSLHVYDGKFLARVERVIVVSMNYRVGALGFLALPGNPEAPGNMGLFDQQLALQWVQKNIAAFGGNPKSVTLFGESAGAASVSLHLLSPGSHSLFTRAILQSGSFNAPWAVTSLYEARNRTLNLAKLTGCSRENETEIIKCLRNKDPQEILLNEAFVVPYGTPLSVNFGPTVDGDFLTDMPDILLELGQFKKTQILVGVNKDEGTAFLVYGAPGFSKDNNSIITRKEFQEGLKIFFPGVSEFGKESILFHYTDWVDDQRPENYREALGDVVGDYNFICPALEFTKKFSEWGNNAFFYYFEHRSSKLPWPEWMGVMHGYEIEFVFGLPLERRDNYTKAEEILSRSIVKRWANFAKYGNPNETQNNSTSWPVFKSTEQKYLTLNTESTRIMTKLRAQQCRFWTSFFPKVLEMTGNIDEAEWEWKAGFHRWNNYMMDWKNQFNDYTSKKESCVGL
In assay [2] the target is Acetylcholinesterase (Homo sapiens, UniProt P22303). Nature of the assay: Inhibition of AChE (unknown origin).
Sequence of Acetylcholinesterase (Homo sapiens, UniProt P22303) (P22303 whole entry): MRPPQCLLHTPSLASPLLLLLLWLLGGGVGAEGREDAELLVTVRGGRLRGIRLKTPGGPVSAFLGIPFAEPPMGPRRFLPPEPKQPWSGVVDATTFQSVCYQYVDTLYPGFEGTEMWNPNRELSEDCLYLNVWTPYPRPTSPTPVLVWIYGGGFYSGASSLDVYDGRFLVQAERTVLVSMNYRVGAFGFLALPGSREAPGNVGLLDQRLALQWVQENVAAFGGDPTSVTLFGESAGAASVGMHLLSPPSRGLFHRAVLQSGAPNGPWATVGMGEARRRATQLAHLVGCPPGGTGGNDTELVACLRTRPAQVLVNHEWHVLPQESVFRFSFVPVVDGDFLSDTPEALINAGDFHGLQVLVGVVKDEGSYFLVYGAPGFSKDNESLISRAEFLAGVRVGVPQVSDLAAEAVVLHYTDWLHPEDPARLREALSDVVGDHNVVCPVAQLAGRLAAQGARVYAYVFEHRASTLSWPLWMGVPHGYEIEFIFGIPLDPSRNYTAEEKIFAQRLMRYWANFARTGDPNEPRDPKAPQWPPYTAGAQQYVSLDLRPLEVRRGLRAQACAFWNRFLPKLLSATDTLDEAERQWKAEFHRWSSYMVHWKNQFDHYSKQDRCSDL
Assay [3] has as its target Amyloid-beta precursor protein (Homo sapiens, UniProt P05067). Nature of the assay: Inhibition of amyloid beta (1 to 40) (unknown origin) self aggregation.

Sequence of Amyloid-beta precursor protein (P05067 whole entry): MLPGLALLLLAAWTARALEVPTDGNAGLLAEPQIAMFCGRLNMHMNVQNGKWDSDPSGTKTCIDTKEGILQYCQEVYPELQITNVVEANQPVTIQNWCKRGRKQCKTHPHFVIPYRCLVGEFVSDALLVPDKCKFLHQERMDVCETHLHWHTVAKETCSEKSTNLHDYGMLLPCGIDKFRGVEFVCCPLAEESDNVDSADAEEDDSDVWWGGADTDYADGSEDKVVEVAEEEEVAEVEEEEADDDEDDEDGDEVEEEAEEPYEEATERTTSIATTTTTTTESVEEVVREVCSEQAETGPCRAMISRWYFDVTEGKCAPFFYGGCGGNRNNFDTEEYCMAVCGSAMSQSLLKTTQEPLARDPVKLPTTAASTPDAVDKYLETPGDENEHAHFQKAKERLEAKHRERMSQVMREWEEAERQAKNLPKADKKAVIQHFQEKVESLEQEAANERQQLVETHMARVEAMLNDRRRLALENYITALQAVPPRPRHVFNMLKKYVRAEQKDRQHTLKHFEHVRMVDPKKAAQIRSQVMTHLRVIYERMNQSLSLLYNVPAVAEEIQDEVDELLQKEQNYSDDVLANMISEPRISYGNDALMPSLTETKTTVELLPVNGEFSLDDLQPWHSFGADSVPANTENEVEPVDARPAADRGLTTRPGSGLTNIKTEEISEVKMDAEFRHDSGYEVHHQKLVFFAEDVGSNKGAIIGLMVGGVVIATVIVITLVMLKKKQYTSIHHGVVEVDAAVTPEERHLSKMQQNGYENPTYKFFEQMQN

In the assay on Calf thymus DNA, `COc1ccc2c(NCCCNCCCNCCn3cnc4c(N)nc(N)nc43)c3cc(Cl)ccc3nc2c1` had a K of 10000 to 1e+06 M⁻¹.

In the assay on DNA, `N#Cc1c(/N=C/c2c3ccccc3nc3ccccc23)sc2c1CCC2` returned a K of 1 ×10⁴ /M.

In the assay on Calf thymus DNA, `CCOc1ccc2nc3c(I)c(N)ccc3c(NCCCNCCCNCCn3cnc4c(N)ncnc43)c2c1` showed a K of 10000 to 1e+06 M⁻¹.

As to `Fc1ccc(N2CCN(c3c4ccccc4nc4c(Cl)cccc34)CC2)cc1`, the IC50 against Acetylcholinesterase [1] is 330 nM.

In turn, `COc1cc2nc3cc([N+](=O)[O-])ccc3c(NCCCNCCCNCCn3cnc4c(N)ncnc43)c2cc1OC` showed a K in the assay on Calf thymus DNA of 10000 to 1e+06 M⁻¹.

`NC(=O)c1c(/N=C/c2c3ccccc3nc3ccccc23)sc2c1CCC2`: the K in the assay with DNA stood at 1 ×10⁴ /M.

On to `COc1ccc2nc3cc(Cl)ccc3c(NCCCNCCCNCCn3cnc4c(N)ncnc43)c2c1`, for which the K in the assay on Calf thymus DNA lay in the range of 10000 to 1e+06 M⁻¹.

`O=C(NCCCCCNc1c2c(nc3ccccc13)CCCC2)c1c2ccccc2nc2ccccc12`: the IC50 at Cholinesterase was 0.0017 nM; at Acetylcholinesterase [2] it was 0.0076 nM.

With `O=C(/C=C/c1ccc([N+](=O)[O-])cc1)NCCCCCCNc1c2c(nc3ccccc13)CCCC2`, the half-inhibitory concentration (IC50) is 6.5 nM at Cholinesterase and 2.7 nM against Acetylcholinesterase [2].

The molecule `Cc1cc(C)c(S(=O)(=O)Nc2ccc(C3C4=C(CC(C)(C)CC4=O)N(c4ccc(Br)cc4)C4=C3C(=O)CC(C)(C)C4)cc2)c(C)c1` gave an IC50 against Acetylcholinesterase [2] of 140 nM.

As to `COc1ccc2nc3cc(Cl)ccc3c(Nc3sc4c(c3C#N)CCC4)c2c1`, in the assay on DNA, the K was 1 ×10⁴ /M.

On to `CCOc1ccc2nc3cc(N)ccc3c(NCCCNCCCNCCn3cnc4c(N)ncnc43)c2c1`, for which the K in the assay with Calf thymus DNA was in the range of 10000 to 1e+06 M⁻¹.

Turning to `CCN(CC)CCCCC(C)Nc1c2ccccc2nc2c(C(=O)NCCCO/N=C/C(=O)NCCCC[C@@H]3NC(=O)CNC(=O)[C@@H]4CCCN4C(=O)[C@H](CCCCN)NC(=O)[C@@H]4CCCN4C(=O)[C@H](CCCCN)NC(=O)CNC(=O)[C@@H]4CCCN4C(=O)[C@H](CCCCN)NC(=O)[C@@H]4CCCN4C3=O)cccc12` (stereo partly specified) (cyclo(GKPKPGK(X1)PKP)), the IC50 in assay [3] turned out to be 2000 nM.

On to `CCOC(=O)c1c(/N=C/c2c3ccccc3nc3ccccc23)sc2c1CCC2`, for which the K in the assay on DNA was found to be 1 ×10⁴ /M.
